# Assay results taken from ChEMBL document CHEMBL4387701, “H2depda: An acyclic adjuvant potentiates meropenem activity in vitro against metallo-β-lactamase-producing enterobacterales” (Eur J Med Chem, 2019).
# The source made the active and inactive calls. No cut-off for these calls is given here.
# Legend:
# Klebsiella pneumoniae [1] = experiment: Inhibition of IMP4 in Klebsiella pneumoniae isolate 13 assessed as potentiation of meropenem-induced antibacterial activity by measuring meropenem MIC after 24 hrs by broth microdilution method (reference value: 320 ug/ml)
# Escherichia coli [2] = experiment: Inhibition of IMP4 in Escherichia coli isolate 14 assessed as potentiation of meropenem-induced antibacterial activity by measuring meropenem MIC after 24 hrs by broth microdilution method (reference value: 16 ug/ml)
# Escherichia coli [3] = experiment: Effect on growth of Escherichia coli isolate 9 after 24 hrs by broth microdilution assay; format: organism-based
# [4] = biological target: T1, Metallo-beta-lactamase NDM-4 (Escherichia coli) (UniProt H6WZS9); experiment: Inhibition of NDM4 in Escherichia coli isolate 3 assessed as potentiation of meropenem-induced bactericidal activity at 4 times MIC incubated for 24 hrs followed by replating on agar plates for 16 to 18 hrs and measured up to 24 hrs by time kill assay
# T1 sequence (whole entry): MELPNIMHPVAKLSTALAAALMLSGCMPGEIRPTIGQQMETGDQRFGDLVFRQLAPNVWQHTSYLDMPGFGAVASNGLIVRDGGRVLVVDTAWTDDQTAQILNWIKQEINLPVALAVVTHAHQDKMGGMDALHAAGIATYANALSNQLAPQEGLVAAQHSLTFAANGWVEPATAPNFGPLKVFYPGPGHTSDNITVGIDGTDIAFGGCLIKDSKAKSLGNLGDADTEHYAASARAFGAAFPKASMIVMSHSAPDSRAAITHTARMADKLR
# Escherichia coli [5] = experiment: Effect on growth of Escherichia coli isolate 1 after 24 hrs by broth microdilution assay; format: organism-based
# Escherichia coli [6] = experiment: Inhibition of NDM1 in Escherichia coli isolate 1 assessed as potentiation of meropenem-induced antibacterial activity by measuring meropenem MIC after 24 hrs by broth microdilution assay (reference value: 1280 ug/ml)
# Escherichia coli [7] = experiment: Effect on growth of NDM4-positive Escherichia coli assessed as bacterial growth at 64 ug/mL after 24 hrs by broth microdilution method relative to control; format: organism-based
# Klebsiella pneumoniae [8] = experiment: Inhibition of IMP4 in Klebsiella pneumoniae isolate 12 assessed as potentiation of meropenem-induced antibacterial activity by measuring meropenem MIC after 24 hrs by broth microdilution method (reference value: 16 ug/ml)
# Escherichia coli [9] = experiment: Effect on growth of Escherichia coli isolate 2 after 24 hrs by broth microdilution assay; format: organism-based
# Escherichia coli [10] = experiment: Inhibition of IMP4 in Escherichia coli isolate 18 assessed as potentiation of meropenem-induced antibacterial activity by measuring meropenem MIC after 24 hrs by broth microdilution method (reference value: 16 ug/ml)
# Enterobacter cloacae [11] = experiment: Effect on growth of Enterobacter cloacae isolate 4 after 24 hrs by broth microdilution assay; format: organism-based
# Enterobacter cloacae [12] = experiment: Inhibition of NDM1 in Enterobacter cloacae isolate 6 assessed as potentiation of meropenem-induced antibacterial activity by measuring meropenem MIC after 24 hrs by broth microdilution assay (reference value: 320 ug/ml)
# [13] = biological target: T1, Metallo-beta-lactamase NDM-4 (Escherichia coli); experiment: Inhibition of Escherichia coli NDM4 assessed as potentiation of meropenem-induced antibacterial activity by measuring bacterial growth rate at 64 ug/mL after 24 hrs in presence of ZnCl2 by broth microdilution method relative to control
# Escherichia coli [14] = experiment: Effect on growth of Escherichia coli isolate 8 after 24 hrs by broth microdilution assay; format: organism-based
# Klebsiella pneumoniae [15] = experiment: Inhibition of IMP4 in Klebsiella pneumoniae isolate 17 assessed as potentiation of meropenem-induced antibacterial activity by measuring meropenem MIC after 24 hrs by broth microdilution method (reference value: 32 ug/ml)
# Proteus mirabilis [16] = experiment: Effect on growth of Proteus mirabilis isolate 19 after 24 hrs by broth microdilution method; format: organism-based
# Enterobacter cloacae [17] = experiment: Effect on growth of Enterobacter cloacae isolate 15 after 24 hrs by broth microdilution method; format: organism-based
# Escherichia coli [18] = experiment: Inhibition of IMP4 in Escherichia coli isolate 11 assessed as potentiation of meropenem-induced antibacterial activity by measuring meropenem MIC after 24 hrs by broth microdilution method (reference value: 32 ug/ml)
# Escherichia coli [19] = experiment: Effect on growth of Escherichia coli isolate 3 after 24 hrs by broth microdilution assay; format: organism-based
# Enterobacter cloacae [20] = experiment: Inhibition of NDM1 in Enterobacter cloacae isolate 4 assessed as potentiation of meropenem-induced antibacterial activity by measuring meropenem MIC after 24 hrs by broth microdilution assay (reference value: 640 ug/ml)
# Enterobacter cloacae [21] = experiment: Effect on growth of Enterobacter cloacae isolate 16 after 24 hrs by broth microdilution method; format: organism-based
# Enterobacter cloacae [22] = experiment: Effect on growth of Enterobacter cloacae isolate 6 after 24 hrs by broth microdilution assay; format: organism-based
# Enterobacter cloacae [23] = experiment: Effect on growth of Enterobacter cloacae isolate 5 after 24 hrs by broth microdilution assay; format: organism-based
# Escherichia coli [24] = experiment: Effect on growth of Escherichia coli isolate 11 after 24 hrs by broth microdilution method; format: organism-based
# Enterobacter cloacae [25] = experiment: Inhibition of NDM1 in Enterobacter cloacae isolate 5 assessed as potentiation of meropenem-induced antibacterial activity by measuring meropenem MIC after 24 hrs by broth microdilution assay (reference value: 640 ug/ml)
# Proteus mirabilis [26] = experiment: Inhibition of IMP4 in Proteus mirabilis isolate 19 assessed as potentiation of meropenem-induced antibacterial activity by measuring meropenem MIC after 24 hrs by broth microdilution method (reference value: 320 ug/ml)
# Escherichia coli [27] = experiment: Effect on growth of Escherichia coli isolate 14 after 24 hrs by broth microdilution method; format: organism-based
# Escherichia coli [28] = experiment: Inhibition of NDM-7 in Escherichia coli isolate 2 assessed as potentiation of meropenem-induced antibacterial activity by measuring meropenem MIC after 24 hrs by broth microdilution assay (reference value: 640 ug/ml)
# Klebsiella pneumoniae [29] = experiment: Effect on growth of Klebsiella pneumoniae isolate 10 after 24 hrs by broth microdilution method; format: organism-based
# Enterobacter cloacae [30] = experiment: Inhibition of IMP4 in Enterobacter cloacae isolate 15 assessed as potentiation of meropenem-induced antibacterial activity by measuring meropenem MIC after 24 hrs by broth microdilution method (reference value: 32 ug/ml)
# Klebsiella pneumoniae [31] = experiment: Inhibition of IMP4 in Klebsiella pneumoniae isolate 10 assessed as potentiation of meropenem-induced antibacterial activity by measuring meropenem MIC after 24 hrs by broth microdilution method (reference value: 64 ug/ml)
# Escherichia coli [32] = experiment: Inhibition of NDM1 in Escherichia coli isolate 8 assessed as potentiation of meropenem-induced antibacterial activity by measuring meropenem MIC after 24 hrs by broth microdilution assay (reference value: 320 ug/ml)
# Citrobacter freundii = experiment: Effect on growth of Citrobacter freundii isolate 7 after 24 hrs by broth microdilution assay; format: organism-based
# Escherichia coli [33] = experiment: Effect on growth of Escherichia coli isolate 18 after 24 hrs by broth microdilution method; format: organism-based
# [34] = biological target: T1, Metallo-beta-lactamase NDM-4 (Escherichia coli); experiment: Inhibition of Escherichia coli NDM4 assessed as potentiation of meropenem-induced antibacterial activity by measuring reduction in bacterial growth at 64 ug/mL after 24 hrs by broth microdilution method relative to control
# Klebsiella pneumoniae [35] = experiment: Effect on growth of Klebsiella pneumoniae isolate 13 after 24 hrs by broth microdilution method; format: organism-based
# Klebsiella pneumoniae [36] = experiment: Effect on growth of Klebsiella pneumoniae isolate 17 after 24 hrs by broth microdilution method; format: organism-based
# [37] = biological target: T1, Metallo-beta-lactamase NDM-4 (Escherichia coli); experiment: Inhibition of NDM4 in Escherichia coli isolate 3 assessed as potentiation of meropenem-induced antibacterial activity by measuring meropenem MIC after 24 hrs by broth microdilution assay (reference value: 1280 ug/ml)
# Klebsiella pneumoniae [38] = experiment: Effect on growth of Klebsiella pneumoniae isolate 12 after 24 hrs by broth microdilution method; format: organism-based
# Enterobacter cloacae [39] = experiment: Inhibition of IMP4 in Enterobacter cloacae isolate 16 assessed as potentiation of meropenem-induced antibacterial activity by measuring meropenem MIC after 24 hrs by broth microdilution method (reference value: 64 ug/ml)
# Escherichia coli [40] = experiment: Effect on growth of NDM4-positive Escherichia coli assessed as bacterial growth at 0.03125 ug/mL after 24 hrs by broth microdilution method relative to control; format: functional
# [41] = Inhibition of Stenotrophomonas maltophilia NDM1 expressed in Escherichia coli BL21 (DE3) expressing measured after 15 minutes at interval of 60 secs
# [42] = system: Escherichia coli ATCC 25922; experiment: Inhibition of IMP-4 in Escherichia coli ATCC 25922 assessed as potentiation of meropenem-induced antibacterial activity by measuring zone of inhibition by agar disk diffusion method
# [43] = biological target: T1, Metallo-beta-lactamase NDM-4 (Escherichia coli); experiment: Inhibition of NDM4 in Escherichia coli ATCC 25922 assessed as potentiation of meropenem-induced antibacterial activity by measuring zone of inhibition by agar disk diffusion method
smiles,measurement,setting,value
O=C(O)CN1CCN(CC(=O)O)CCN(CC(=O)O)CC1,MIC,Klebsiella pneumoniae [1],4 µg/mL
same,MIC,Escherichia coli [2],4 µg/mL
same,MIC,Escherichia coli [3],16 µg/mL
same,inhibition,[4],Active
same,MIC,Escherichia coli [5],16 µg/mL
same,MIC,Escherichia coli [6],0.0312 µg/mL
same,Activity,Escherichia coli [7],95%
same,MIC,Klebsiella pneumoniae [8],1 µg/mL
same,MIC,Escherichia coli [9],16 µg/mL
same,MIC,Escherichia coli [10],2 µg/mL
same,MIC,Enterobacter cloacae [11],16 µg/mL
same,MIC,Enterobacter cloacae [12],0.0312 µg/mL
same,inhibition,[13],81%
same,MIC,Escherichia coli [14],16 µg/mL
same,MIC,Klebsiella pneumoniae [15],4 µg/mL
same,MIC,Proteus mirabilis [16],16 µg/mL
same,MIC,Enterobacter cloacae [17],16 µg/mL
same,MIC,Escherichia coli [18],1 µg/mL
same,MIC,Escherichia coli [19],16 µg/mL
same,MIC,Enterobacter cloacae [20],0.125 µg/mL
same,MIC,Enterobacter cloacae [21],16 µg/mL
same,MIC,Enterobacter cloacae [22],16 µg/mL
same,MIC,Enterobacter cloacae [23],16 µg/mL
same,MIC,Escherichia coli [24],16 µg/mL
same,MIC,Enterobacter cloacae [25],0.25 µg/mL
same,MIC,Proteus mirabilis [26],4 µg/mL
same,MIC,Escherichia coli [27],16 µg/mL
same,MIC,Escherichia coli [28],0.25 µg/mL
same,MIC,Klebsiella pneumoniae [29],16 µg/mL
same,MIC,Enterobacter cloacae [30],1 µg/mL
same,MIC,Klebsiella pneumoniae [31],4 µg/mL
same,MIC,Escherichia coli [32],0.125 µg/mL
same,MIC,Citrobacter freundii,16 µg/mL
same,MIC,Escherichia coli [33],16 µg/mL
same,inhibition,[34],Active
same,MIC,Klebsiella pneumoniae [35],16 µg/mL
same,MIC,Klebsiella pneumoniae [36],16 µg/mL
same,MIC,[37],0.25 µg/mL
same,MIC,Klebsiella pneumoniae [38],16 µg/mL
same,MIC,Enterobacter cloacae [39],2 µg/mL
C[C@@H](O)[C@H]1C(=O)N2C(C(=O)O)=C(S[C@@H]3CN[C@H](C(=O)N(C)C)C3)[C@H](C)[C@H]12 [MEROPENEM],Activity,Escherichia coli [40],95%
O=C(O)CN(CCN(CC(=O)O)CC(=O)O)CC(=O)O [EDETIC ACID],IC50,[41],8.47 µM
same,inhibition zone (IZ),[42],13.9 mm
same,inhibition zone (IZ),[43],18.2 mm
